Here are results for one molecule from patent US10010610B2, “Compositions and methods for the treatment of intraocular neovascularization and/or leakage” (Retinal Therapies LLC, priority 2014, dated 2018).

Each structure is given as a SMILES string. A value given as a limit tells only on which side of the number the result lay.

The nature of one series: in vivo. The conditions noted are these: rabbit, topical, 0.25 % w/v.
Series [1] in a line: Slit lamp and fundus exams after topical ocular dosing in rabbits. Conditions: Example 1 formulation, topical twice-a-day to both eyes, treated eyes.
For series [2] the following is noted: octanol-water partition coefficient at pH 7.0; cited from earlier work.

Take `COc1cc2nccc(Oc3ccc(NC(=O)C4(C(=O)Nc5ccc(F)cc5)CC4)cc3)c2cc1OC` [cabozantinib]: the concentration at 5 day in the series “in vivo” (pigmented, plasma) is less than 12.5 ng/mL; in “in vivo” (posterior vitreous), 0.99 nM. Besides, the “slit lamp and fundus exams” value in series [1] is recorded as “completely normal except for slight conjuctival follicle formation”. Moreover, in series [2], the Log P (usually a log measure of how a compound divides between an organic and an aqueous phase) is 3.0.
